Molecules are shown by their SMILES.

The test system of one data set is DNBS-induced rat colitis. The data set can be described thus: DNBS-induced rat colitis, anti-colitic effects. As to conditions: for colonic damage (CDS) / CINC-3 level in inflamed distal colon / MPO activity in inflamed distal colon / iNOS and COX-2 protein levels in inflamed distal colon: oral once per day for 6 days, tCA 30 mg/kg; for colonic damage (CDS): tCA-GA equivalent to 15 (L) and 30 (H) mg/kg tCA, SSZ 30 mg/kg; for CINC-3 level in inflamed distal colon / MPO activity in inflamed distal colon / iNOS and COX-2 protein levels in inflamed distal colon: tCA-GA L and H. The format is in vivo. The procedure:
For an animal experiment to evaluate the anti-colitic effects of drugs, six groups (n = 5 rats per group) were made and treated via oral gavage as follows: normal group, 1.0 mL of phosphate buffered saline (pH 7.4, PBS); colitis group, 1.0 mL of PBS; tCA-treated colitis group, tCA (30 mg/kg) in 1.0 mL of PBS; tCA-GA-treated colitis group (L), tCA-GA (28 mg/kg, equivalent to 15 mg/kg of tCA) in 1.0 mL of PBS; tCA-GA-treated colitis group (H), tCA-GA (56 mg/kg, equivalent to 30 mg/kg of tCA) in 1.0 mL of PBS; SSZ-treated colitis group, SSZ (30 mg/kg) in 1.0 mL of PBS. For the other experiment to evaluate GPR109A-dependent anti-colitic effects of tCA-GA, five groups (n = 5 rats per group) were made and treated via oral gavage as follows: normal group, 1.0 mL of PBS; colitis group, 1.0 mL of PBS; tCA-GA-treated colitis group, tCA-GA (28 mg/kg) in 1.0 mL of PBS; tCA-GA + MPZ-treated colitis group, tCA-GA (28 mg/kg) and MPZ (2 mg/kg) in 1.0 mL of PBS; MPZ-treated colitis group, MPZ (2 mg/kg) in 1.0 mL of PBS.
DNBS-mediated colitis was induced in rats as described previously. Additionally, 3 days after the induction of colitis, the drugs were administered once per day for 6 days as in Section 2.10. The rats were killed to obtain the inflamed distal colon. The colonic damage score (CDS), assessing pathological state in colon tissue and neighbor organs ascribed to DNBS-induced inflammation, was calculated according to the criteria set previously. For histological evaluation, fixed colon tissues were embedded in paraffin, sections with a thickness of 4 μm were cut and stained with hematoxylin and eosin (H&E). The sections were examined under a light microscope (Olympus BX43, Olympus Co., Tokyo, Japan). Myeloperoxidase (MPO) activity was measured as described previously.
(§1) Changes in levels of the proteins were monitored using Western blotting. Cell lysates and tissue lysates of the distal colon were prepared for Western blot analysis as described previously. To determine the protein concentrations in the lysates, bicinchoninic acid reagent (Thermo Fisher Scientific, Waltham, MA, USA) was used according to the manufacturer’s instructions. SDS-PAGE (10 or 7.5% gels) was used to separate and analyze the proteins in the sample lysates. Anti-cyclooxygenase (COX-2, sc-365374, Santa Cruz Biotechnology, Dallas, TX, USA) and anti-inducible nitric oxide synthase (iNOS) antibodies (sc-7271, Santa Cruz Biotechnology) were used to detect COX-2 and iNOS proteins, respectively. Horseradish peroxidase-conjugated secondary antibodies (Santa Cruz Biotechnology) were used to label the primary antibodies. The protein bands in membranes were visualized using the SuperSignal chemiluminescence substrate (Thermo Fisher Scientific, Waltham, MA, USA). As a loading control, α-tubulin was detected using an anti-α-tubulin antibody (Santa Cruz Biotechnology). Intensity of Western blots was quantified using Image Lab software (version 5.2 build 14, Bio-Rad, Hercules, CA, USA). The mean values (n = 3 for cell experiments, n = 5 for animal experiments) were shown under the blots in figures. Original images of Western blots are shown in Supplementary Data S1.
The distal colon samples (0.1 g) obtained from rats were minced in a potassium phosphate buffer (pH 6.0, 1.0 mL), homogenized using a T10 basic/IKA homogenizer (ULTRA-TURRAX®, Staufen im Breisgau, Germany), and centrifuged at 10,000× g for 10 min at 4 °C. The levels of CINC-3 and IL-10 were determined in the samples using ELISA kits, according to the manufacturer’s instructions.

In a further data set the test system is RAW 264.7 cells. Nature of the data set: LPS-stimulated RAW 264.7 cells: IL-10, COX-2 and iNOS levels. The class given is cell-based, murine. The procedure:
as §1

A short description of data set [1]: Stability in small intestinal contents. The format is in vitro ADME. As to conditions: rat small intestinal contents, up to 10 h. As for the experimental part:
(§2) Male Sprague–Dawley (SpD) rats (250–260 g) were killed using CO2 gas. The proximal small intestinal, distal small intestinal, and cecal contents were collected separately and suspended in pH 6.8 isotonic phosphate buffer to prepare a 20% w/v suspension. tCA-GA and tCA-AA (10 mM) dissolved in pH 6.8 isotonic phosphate buffer (4 mL) were added to the suspension (4 mL) and incubated at 37 °C. To maintain anaerobic conditions, the collection of cecal contents and incubation of the conjugates in the cecal contents were conducted in a nitrogen gas bag (Sigma-Aldrich, Burlington, MA, USA). At appropriate time intervals, a portion of the mixture (0.5 mL), pipetted using a wide-orifice tip, was centrifuged in a microtube. After acidification (with 1.0 M HCl) of the supernatant (0.3 mL), EA was added and vigorously mixed. The organic layer (0.2 mL) was retrieved and evaporated. The residue, dissolved in the mobile phase (0.2 mL), was filtered and subjected to HPLC analysis. Centrifugation was conducted at 10,000× g for 10 min at 4 °C.

Another data set concerns Caco-2 cell monolayer. The data set can be described thus: Caco-2 cell monolayer permeability assay. The class given is in vitro ADME, Human. As to conditions: 1.2 mM on apical side, up to 24 h, compared with tCA. The procedure: Caco-2 cells were seeded at 1 × 10^5 cells per insert in Transwell inserts with a pore size of 0.4 μm (SPL Inc., Houston, TX, USA). DMEM, containing 10% FBS and 1% penicillin/streptomycin, was added to the basolateral (well) (1 mL) and apical (insert) compartments (0.2 mL). The cells were grown until the trans-epithelial electrical resistance value (EMD Millipore, Billerica, MA, USA) of the cell monolayer reached 2000 Ω cm^2. After removing the culture medium, tCA and its derivatives (1.2 mM) dissolved in DMEM (0.2 mL) without phenol red and were placed on the apical side of the cell monolayer. At appropriate time intervals, the concentrations of the drugs on the basolateral side filled with DMEM (1.0 mL) were determined using HPLC.

Data set [2] can be described thus: Cleavage test with autoclaved cecal contents. The class given is in vitro ADME, rat. As to conditions: up to 24 h.
A short description of data set [3]: Distribution coefficient (log D6.8), n-octanol/buffer pH 6.8. The conditions noted are these: n-octanol/buffer (pH 6.8) system; read-out: distribution coefficient (DC, log D6.8). The format is physicochemical. As for the experimental part:
Distribution coefficients (log D6.8) of tCA, tCA-AA, and tCA-GA were measured as described previously. The concentrations of drugs were determined using a UV-Vis spectrophotometer (Shimadzu, Tokyo, Japan) at 277 nm, and log D6.8 was calculated using the equation reported previously. The chemical stabilities of tCA-GA and tCA-AA were analyzed in HCl-NaCl buffer (pH 1.2) and pH 6.8 isotonic phosphate buffer, representing the physiological pH of the stomach and small intestine, respectively. Each drug (0.1 mM) dissolved in the buffers was incubated for at least 12 h, and change in the concentrations of the drugs was monitored using HPLC analysis.

Data set [4] can be described thus: Chemical stability in pH 1.2 and pH 6.8 buffers. The class given is physicochemical. As to conditions: incubation for up to 10 h. The procedure:
Distribution coefficients (log D6.8) of tCA, tCA-AA, and tCA-GA were measured as described previously. The concentrations of drugs were determined using a UV-Vis spectrophotometer (Shimadzu, Tokyo, Japan) at 277 nm, and log D6.8 was calculated using the equation reported previously. The chemical stabilities of tCA-GA and tCA-AA were analyzed in HCl-NaCl buffer (pH 1.2) and pH 6.8 isotonic phosphate buffer, representing the physiological pH of the stomach and small intestine, respectively. […]

Data set [5] is described as follows: Conversion of conjugates to tCA in cecal contents under nitrogen. As to conditions: rat cecal contents under nitrogen. The format is in vitro ADME. The procedure:
as §2

The mark [6] stands for this setting: RAW 264.7, LPS, MPZ 100 µM with tCA.
Setting [7] is: tCA-GA 28 mg/kg oral once per day for 6 days (MPZ experiment).

`C[N+]1(C)CCCC(OC(=O)C(O)(c2ccccc2)c2ccccc2)C1` (centres unmarked) [MPZ, mepenzolate, reference compound]: the “inflammatory state after single treatment” value in the data set with DNBS-induced rat colitis (MPZ 2 mg/kg alone, oral, 6 days) is on record as “inflammatory state similar to that induced by the DNBS control”. Moreover, in the data set with DNBS-induced rat colitis (MPZ 2 mg/kg co-administered with tCA-GA 28 mg/kg, oral, 6 days), the “effect of co-administered MPZ on colonic damage and inflammation” value was “significantly compromised the beneficial effects of tCA-GA”. Moreover, the “effect of co-administered MPZ on IL-10 level in inflamed colon” value in the data set on DNBS-induced rat colitis (MPZ 2 mg/kg combined with tCA-GA 28 mg/kg, oral, 6 days) was “significantly suppressed the increase in the levels of IL-10”. Besides, in the data set with RAW 264.7 cells (setting [6]), the “effect of MPZ on tCA suppression of COX-2 and iNOS” value was “undermined the suppressive effects of tCA”; the “effect of MPZ on tCA-increased IL-10 level” value is on record as “significantly suppressed by MPZ”.
For `O=C(O)c1cc(/N=N/c2ccc(S(=O)(=O)Nc3ccccn3)cc2)ccc1O` [SSZ, sulfasalazine, reference compound], the “colonic damage (CDS)” value in the data set with DNBS-induced rat colitis is “tCA was as effective as SSZ”.
As for `O=C(O)/C=C/c1ccccc1` [tCA, trans-cinnamic acid], in the data set with DNBS-induced rat colitis, the “CINC-3 level in inflamed distal colon” value is on record as “lowered”; the “MPO activity in inflamed distal colon” value is given as “lowered MPO activity”; the “iNOS and COX-2 protein levels in inflamed distal colon” value is “lowered”; the “colonic damage (CDS)” value was “ameliorated colonic damage”. In addition, the “LPS-induced COX-2 and iNOS protein levels” value in the data set on RAW 264.7 cells (RAW 264.7, LPS 24 h, tCA pretreatment 1 h) is “reduced the levels of COX-2 and iNOS”. Moreover, the “IL-10 level in cell culture supernatant” value in the data set on RAW 264.7 cells (RAW 264.7, LPS, tCA 2 mM / 5 mM) is listed as “increased the level of IL-10”.
Regarding `O=C(O)C[C@H](NC(=O)/C=C/c1ccccc1)C(=O)O` [tCA-AA, N-Cinnamoyl-L-Aspartic Acid], the “change in concentration in small intestinal contents” value in data set [1] is “no notable changes in the concentrations”. Besides, in the data set on Caco-2 cell monolayer, the “permeation through the Caco-2 cell monolayer” value is reported as “substantially delayed the permeation of tCA through the cell monolayer”. Moreover, the “stability in autoclaved cecal contents” value in data set [2] is listed as “remained intact for up to 24 h”. Moreover, the logD in data set [3] is -0.61. Moreover, in data set [4], the “change in concentration in buffers (pH 1.2, 6.8)” value was “no notable changes in the concentrations”.
With `O=C(O)CC[C@H](NC(=O)/C=C/c1ccccc1)C(=O)O` [tCA-GA, N-Cinnamoyl-L-Glutamic Acid], the “change in concentration in small intestinal contents” value in data set [1] is “no notable changes in the concentrations”. The “H&E staining, mucosal layer of distal colon” value in the data set with DNBS-induced rat colitis (both doses of tCA-GA, greater than tCA and SSZ) was “recovered the mucosal layer of the distal colon”. In the data set with DNBS-induced rat colitis (first experiment (Supplementary Data S6), more effective than oral tCA), the “IL-10 level in inflamed colon” value is reported as “increased the levels of IL-10 in the inflamed colon”. Moreover, in the data set on DNBS-induced rat colitis, the “CINC-3 level in inflamed distal colon” value was “lowered”; the “MPO activity in inflamed distal colon” value was “lowered MPO activity”; the “iNOS and COX-2 protein levels in inflamed distal colon” value is listed as “lowered”; the “colonic damage (CDS)” value is “significantly more effective than tCA at mitigating pathological changes”. Moreover, in the data set on DNBS-induced rat colitis (setting [7]), the “IL-10 level in inflamed colon” value is “increased the levels of IL-10 in the inflamed colon”; the “colonic damage incl. colon length shortening” value is recorded as “substantially alleviates colonic damage”; the “colonic inflammation (MPO activity, CINC-3, iNOS, COX-2 in distal colon)” value is reported as “markedly suppressed”. Also, the “permeation through the Caco-2 cell monolayer” value with Caco-2 cell monolayer is given as “substantially delayed the permeation of tCA through the cell monolayer”. Besides, in data set [2], the “stability in autoclaved cecal contents” value is listed as “remained intact for up to 24 h”. Moreover, the “conversion rate to tCA” value in data set [5] is “higher than that of tCA-AA to tCA”. The logD in data set [3] is -0.98. For the same compound, the “change in concentration in buffers (pH 1.2, 6.8)” value in data set [4] is “no notable changes in the concentrations”.
